From US20160168118A1, “N-(5-QUINOLIN-6-YL)PYRIDIN-3-YL) BENZSULFAMIDE DERIVATIVES, PREPARATION METHOD AND THERAPEUTIC USE THEREOF” (SECOND MILITARY MEDICAL UNIVERSITY, PLA, priority 2012, published 2016)
Values after ≈ are worked out from the molar mass of the structure shown.

Assays:
[1] = system: HCT116 (human colon cancer cells); test: MTT assay, HCT116; assay type: cell-based; conditions: HCT-116, 72 h
[2] = system: A549 (human lung cancer cells); test: MTT assay, A549; assay type: cell-based; conditions: 72 h
Description: (§1) 1. Sample preparation: After dissolved with DMSO (Merck), PBS (−) was added to make 1000 μg/ml solution or a uniform suspension, and then diluted with PBS (−) containing the DMSO. Doxorubicin (DOX) was used as the positive control drug.
(§2) 2. Cell Line • 1) A549 (human lung cancer cells); 2) HCT116 (human colon cancer cells); 3) HepG2 (human hepatoma cells); 4) ZR-75-30 (human breast cancer cells); 5) U87MG (human brain star glioblastoma)
(§3) DMEM+5-10% FBS+double resistant
(§4) MTT assay. 100 μl cell suspension was added at a concentration of 4˜5×10^4 cells/ml to each well of a 96-well plate, and was set at 37° C., 5% CO2 in the incubator. After 24 h, the sample solution was added, 10 μl/hole, double wells were set, 37° C., acting for 72 h at 5% CO2. […] of 5 mg/ml was added to each well, the dissolving liquid was added after acted for 4 h, 100 μl/hole, kept in the incubator, and read 570 nm OD with MK-2 automatic microplate reader after dissolution.

[3] = system: U87MG (human brain star glioblastoma); test: MTT assay, U87MG; assay type: cell-based; conditions: U-87 MG, 72 h
Description: as §1, §2, §3, §4

PI3Kα = PI3Kα (Homo sapiens, UniProt P42336); test: Kinase-Glo Luminescent Kinase Assay, PI3Kα; assay type: biochemical
[4] = system: HepG2 (human hepatoma cells); test: MTT assay, HepG2; assay type: cell-based; conditions: 72 h
Description: as §1, §2, §3, §4

PI3Kα, sequence (P42336 whole entry, species assumed): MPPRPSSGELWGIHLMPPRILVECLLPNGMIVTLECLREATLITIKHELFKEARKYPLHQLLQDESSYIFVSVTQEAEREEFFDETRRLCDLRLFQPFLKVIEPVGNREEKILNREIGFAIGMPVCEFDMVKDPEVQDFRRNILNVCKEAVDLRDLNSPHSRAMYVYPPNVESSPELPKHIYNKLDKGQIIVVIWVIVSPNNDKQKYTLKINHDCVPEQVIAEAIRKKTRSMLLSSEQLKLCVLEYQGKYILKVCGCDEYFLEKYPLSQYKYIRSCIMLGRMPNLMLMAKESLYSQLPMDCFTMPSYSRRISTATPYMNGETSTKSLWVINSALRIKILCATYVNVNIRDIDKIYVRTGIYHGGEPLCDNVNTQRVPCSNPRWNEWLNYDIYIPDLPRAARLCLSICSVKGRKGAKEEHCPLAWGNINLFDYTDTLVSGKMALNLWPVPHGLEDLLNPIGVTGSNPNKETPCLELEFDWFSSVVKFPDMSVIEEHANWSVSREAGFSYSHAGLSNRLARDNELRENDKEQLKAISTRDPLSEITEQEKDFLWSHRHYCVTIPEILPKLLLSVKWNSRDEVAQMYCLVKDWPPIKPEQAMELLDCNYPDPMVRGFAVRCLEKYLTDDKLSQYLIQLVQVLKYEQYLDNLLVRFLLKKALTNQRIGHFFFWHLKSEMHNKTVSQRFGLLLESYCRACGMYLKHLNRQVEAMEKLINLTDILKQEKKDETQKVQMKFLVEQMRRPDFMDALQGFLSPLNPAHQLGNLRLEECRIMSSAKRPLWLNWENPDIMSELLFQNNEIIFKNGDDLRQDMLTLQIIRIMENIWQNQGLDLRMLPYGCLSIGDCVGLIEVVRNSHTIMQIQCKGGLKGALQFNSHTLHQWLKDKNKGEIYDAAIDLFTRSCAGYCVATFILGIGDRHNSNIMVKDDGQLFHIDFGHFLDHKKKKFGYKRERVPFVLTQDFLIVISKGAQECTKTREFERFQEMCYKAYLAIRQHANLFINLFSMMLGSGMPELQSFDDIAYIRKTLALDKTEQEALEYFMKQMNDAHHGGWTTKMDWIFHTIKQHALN
PI3Kα, sequence (P27986 whole entry partner, species assumed): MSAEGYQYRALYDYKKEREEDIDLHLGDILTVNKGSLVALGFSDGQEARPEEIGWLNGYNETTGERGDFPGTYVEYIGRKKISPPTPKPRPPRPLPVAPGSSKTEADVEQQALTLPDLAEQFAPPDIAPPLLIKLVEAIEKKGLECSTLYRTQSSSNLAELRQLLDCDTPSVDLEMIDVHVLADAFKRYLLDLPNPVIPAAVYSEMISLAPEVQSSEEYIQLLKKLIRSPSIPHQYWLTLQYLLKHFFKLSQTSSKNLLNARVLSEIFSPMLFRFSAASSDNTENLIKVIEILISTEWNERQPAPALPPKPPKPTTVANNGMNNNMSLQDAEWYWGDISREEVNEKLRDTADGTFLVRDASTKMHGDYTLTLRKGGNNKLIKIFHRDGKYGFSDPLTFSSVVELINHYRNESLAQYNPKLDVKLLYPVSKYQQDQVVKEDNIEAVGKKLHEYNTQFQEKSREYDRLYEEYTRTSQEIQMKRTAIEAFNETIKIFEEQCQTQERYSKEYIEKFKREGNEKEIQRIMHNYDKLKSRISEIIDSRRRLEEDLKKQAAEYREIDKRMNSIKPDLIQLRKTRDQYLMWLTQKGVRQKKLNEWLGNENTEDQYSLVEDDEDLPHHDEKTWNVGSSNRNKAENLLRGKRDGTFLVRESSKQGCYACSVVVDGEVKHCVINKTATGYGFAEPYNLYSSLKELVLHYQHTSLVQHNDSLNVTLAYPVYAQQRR

IC50 [1] [µg/mL]	IC50 [2] [µg/mL]	IC50 [3] [µg/mL]	IC50 (PI3Kα) [nM]	melting point [°C]	IC50 [4] [µg/mL]	SMILES
0.0308 (≈ 0.0567 µM)	0.324 (≈ 0.596 µM)	0.536 (≈ 0.986 µM)				COc1cccc2c1C(=O)c1c(O)c3c(c(O)c1C2=O)C[C@@](O)(C(=O)CO)C[C@@H]3O[C@H]1C[C@H](N)[C@H](O)[C@H](C)O1 [DOX, Doxorubicin, reference compound]
0.143 (≈ 0.222 µM)	0.013 (≈ 0.0202 µM)	0.93 (≈ 1.45 µM)	1.6	87 to 88		CCN(Cc1ccc(-c2ccnc3ccc(-c4cnc(OC)c(NS(=O)(=O)c5ccc(F)cc5F)c4)cc23)cc1)C1CCCCC1 [Compound 22, N-(5-(4-(4-((cyclohexyl(ethyl)amino)methyl)phenyl)quinolin-6-yl)-2-methoxypyridine-3-yl)-2,4-difluorobenzenesulfonamide]
0.031 (≈ 0.0531 µM)	0.018 (≈ 0.0308 µM)	0.935 (≈ 1.6 µM)	1.1	93 to 95		COc1ncc(-c2ccc3nccc(-c4ccc(Cn5cccn5)cc4)c3c2)cc1NS(=O)(=O)c1ccc(F)cc1F [Compound 21, N-(5-(4-(4-((1H-pyrazole-1-yl)methyl)phenyl)quinolin-6-yl)-2-methoxypyridine-3-yl)-2,4-difluorobenzenesulfonamide]
1.87 (≈ 3.17 µM)	0.47 (≈ 0.798 µM)		1.5		4.55 (≈ 7.72 µM)	O=S(=O)(Nc1cc(-c2ccc3nccc(-c4ccc(CN5CCOCC5)cc4)c3c2)cnc1Cl)c1ccc(F)cc1 [Compound 28, N-(5-(4-(4-((morpholino-1-yl)methyl)phenyl)quinolin-6-yl)-2-chlorinepyridin-3-yl)-4-fluorobenzenesulfonamide]
2.39 (≈ 3.94 µM)	0.22 (≈ 0.362 µM)		1.1		1.4 (≈ 2.31 µM)	O=S(=O)(Nc1cc(-c2ccc3nccc(-c4ccc(CN5CCOCC5)cc4)c3c2)cnc1Cl)c1ccc(F)cc1F [Compound 30, N-(5-(4-(4-((morpholino-1-yl)methyl)phenyl)quinolin-6-yl)-2-chlorinepyridin-3-yl)-2,4-difluorobenzenesulfonamide]
0.014 (≈ 0.0217 µM)	0.016 (≈ 0.0248 µM)	0.137 (≈ 0.212 µM)	1.2			COc1ncc(-c2ccc3nccc(-c4ccc(CN5CCN(CCO)CC5)cc4)c3c2)cc1NS(=O)(=O)c1ccc(F)cc1F [Compound 19, N-(5-(4-(4-((4-(2-hydroxyethyl)piperazine-1-yl)methyl)phenyl)quinolin-6-yl)-2-methoxypyridine-3-yl)-2,4-difluorobenzenesulfonamide]
0.011 (≈ 0.0188 µM)	0.022 (≈ 0.0375 µM)	0.093 (≈ 0.159 µM)	1.4	129 to 130		COc1ncc(-c2ccc3nccc(-c4ccc(CN5CCCC5)cc4)c3c2)cc1NS(=O)(=O)c1ccc(F)cc1F [Compound 12]
1.37 (≈ 2.34 µM)	0.15 (≈ 0.257 µM)		1.6		15.9 (≈ 27.1 µM)	COc1ncc(-c2ccc3nccc(-c4ccc(CN5CCOCC5)cc4)c3c2)cc1NS(=O)(=O)c1ccc(F)cc1 [Compound 29, N-(5-(4-(4-((morpholino-1-yl)methyl)phenyl)quinolin-6-yl)-2-methoxypyridine-3-yl)-4-fluorobenzenesulfonamide]
0.027 (≈ 0.0439 µM)	0.00818 (≈ 0.0133 µM)	0.207 (≈ 0.336 µM)	1.3			COc1ncc(-c2ccc3nccc(-c4ccc(CN5CCN(C)CC5)cc4)c3c2)cc1NS(=O)(=O)c1ccc(F)cc1F [Compound 23, N-(5-(4-(4-((4-methylpiperazine-1-yl)methyl)phenyl)quinolin-6-yl)-2-methoxypyridine-3-yl)-2,4-difluorobenzenesulfonamide]
0.00196 (≈ 0.00325 µM)	0.042 (≈ 0.0697 µM)	0.091 (≈ 0.151 µM)	1.1	97 to 99		COc1ncc(-c2ccc3nccc(-c4ccc(CN5CCOCC5)cc4)c3c2)cc1NS(=O)(=O)c1ccc(F)cc1F [Compound 13, N-(5-(4-(4-((morpholino-1-yl)methyl)phenyl)quinolin-6-yl)-2-methoxypyridine-3-yl)-2,4-difluorobenzenesulfonamide]
0.00237 (≈ 0.00382 µM)	0.00174 (≈ 0.0028 µM)	0.089 (≈ 0.143 µM)	1.3	90 to 91		COc1ncc(-c2ccc3nccc(-c4ccc(CN(CCO)CCO)cc4)c3c2)cc1NS(=O)(=O)c1ccc(F)cc1F [Compound 20, N-(5-(4-(4-((di(2-hydroxyethyl)amino)methyl)phenyl)quinolin-6-yl)-2-methoxypyridine-3-yl)-2,4-difluorobenzenesulfonamide]
0.0205 (≈ 0.0341 µM)	0.00934 (≈ 0.0155 µM)	0.019 (≈ 0.0316 µM)	1.2			COc1ncc(-c2ccc3nccc(-c4ccc(CN5CCCCC5)cc4)c3c2)cc1NS(=O)(=O)c1ccc(F)cc1F [Compound 14, N-(5-(4-(4-((piperidine-1-yl)methyl)phenyl)quinolin-6-yl)-2-methoxypyridine-3-yl)-2,4-difluorobenzenesulfonamide]
0.032 (≈ 0.0518 µM)	0.00804 (≈ 0.013 µM)	0.157 (≈ 0.254 µM)	2.5	87 to 88		COc1ncc(-c2ccc3nccc(-c4ccc(CN(C)CCN(C)C)cc4)c3c2)cc1NS(=O)(=O)c1ccc(F)cc1F [Compound 24]
0.221 (≈ 0.368 µM)	0.048 (≈ 0.0799 µM)	0.284 (≈ 0.473 µM)	0.7	115 to 117		COc1ncc(-c2ccc3nccc(-c4ccc(C(=O)N5CCCC5)cc4)c3c2)cc1NS(=O)(=O)c1ccc(F)cc1F [Compound 11, N-(2-methoxy-5-(4-(4-(pyrrolidinyl-1-carbonyl)phenyl)quinolin-6-yl)pyridin-3-yl)-2,4-difluorobenzenesulfonamide]
0.019 (≈ 0.0326 µM)	0.018 (≈ 0.0308 µM)	0.35 (≈ 0.6 µM)	1.1	108 to 109		COc1ncc(-c2ccc3nccc(-c4ccc(Cn5ccnc5)cc4)c3c2)cc1NS(=O)(=O)c1ccc(F)cc1F [Compound 15, N-(5-(4-(4-((1H-imidazole-1-yl)methyl)phenyl)quinolin-6-yl)-2-methoxypyridine-3-yl)-2,4-difluorobenzenesulfonamide]
1.12 (≈ 1.96 µM)	0.19 (≈ 0.332 µM)		4.8		1.06 (≈ 1.85 µM)	COc1ncc(-c2ccc3nccc(-c4ccc(CN(C)CCO)cc4)c3c2)cc1NS(=O)(=O)c1ccc(F)cc1 [Compound 38, N-(5-(4-(4-(((2-hydroxyethyl)(methyl)amino)methyl)phenyl)quinolin-6-yl)-2-methoxypyridine-3-yl)-4-fluorobenzenesulfonamide]
0.0159 (≈ 0.0247 µM)	0.00124 (≈ 0.00193 µM)	0.301 (≈ 0.468 µM)	1.7			COc1ncc(-c2ccc3nccc(-c4ccc(CN5CCN(C(C)C)CC5)cc4)c3c2)cc1NS(=O)(=O)c1ccc(F)cc1F [Compound 18, N-(5-(4-(4-((4-isopropylpiperazine-1-yl)methyl)phenyl)quinolin-6-yl)-2-methoxypyridine-3-yl)-2,4-difluorobenzenesulfonamide]
0.00846 (≈ 0.0142 µM)	0.00608 (≈ 0.0102 µM)	0.024 (≈ 0.0402 µM)	0.95	110 to 111		COc1ncc(-c2ccc3nccc(-c4ccc(Cn5ccnc5C)cc4)c3c2)cc1NS(=O)(=O)c1ccc(F)cc1F [Compound 16, N-(5-(4-(4-((2-methyl-1H-imidazole-1-yl)methyl)phenyl)quinolin-6-yl)-2-methoxypyridine-3-yl)-2,4-difluorobenzenesulfonamide]
